Species on record: Rattus norvegicus
Test: Open TG-GATES - Regimen: Single
Format: toxicity, organism-based, Sprague-Dawley
Set-up: regimen Single, gender Male, age 6 weeks
Conditions: in vivo, po, 50 mg/kg, route gavage, dose level Middle; for APTT / Bas / Eos / Fbg / Hb / Ht / Lym / MCH / MCHC / MCV / Mono / Neu / PT / Plat / RBC / Ret / WBC: tissue Blood; for KIDNEY_L / KIDNEY_R / KIDNEY_TOTAL: tissue Kidney; for LIVER: tissue Liver; for A/G / ALP / ALT / AST / BUN / CRE / Ca / Cl / DBIL / GLC / IP / K / LDH / Na / PL / RALB / TBIL / TC / TG / TP / gamma-GTP: tissue Plasma

Structure (SMILES): Nc1nc(N)c2nc(-c3ccccc3)c(N)nc2n1
- TERMINAL_BW (3 h): 214.5 g
- APTT (3 h): 16.6 s
- Bas (3 h): 0%
- Eos (3 h): 0.8%
- Fbg (3 h): 295.2 mg/dL
- Hb (3 h): 14.3 g/dL
- Ht (3 h): 43.1%
- Lym (3 h): 77%
- MCH (3 h): 21.2 pg
- MCHC (3 h): 33.2%
- MCV (3 h): 64 fL
- Mono (3 h): 3.4%
- Neu (3 h): 18.4%
- PT (3 h): 13.9 s
- Plat (3 h): 121.1 x10_4/uL
- RBC (3 h): 673.2 x10_4/ul
- Ret (3 h): 7%
- WBC (3 h): 86.9 x10_2/uL
- KIDNEY_L (3 h): 1 g
- KIDNEY_R (3 h): 1 g
- KIDNEY_TOTAL (3 h): 1.9 g
- LIVER (3 h): 9.5 g
- A/G (3 h): 0.9
- ALP (3 h): 1490.4 IU/L
- ALT (3 h): 42.4 IU/L
- AST (3 h): 73.2 IU/L
- BUN (3 h): 12.2 mg/dL
- CRE (3 h): 0.2 mg/dL
- Ca (3 h): 11 mg/dL
- Cl (3 h): 105.2 meq/L
- DBIL (3 h): 0.006 mg/dL
- GLC (3 h): 165 mg/dL
- IP (3 h): 8.7 mg/dL
- K (3 h): 4.7 meq/L
- LDH (3 h): 59.4 IU/L
- Na (3 h): 141.4 meq/L
- PL (3 h): 160.8 mg/dL
- RALB (3 h): 2.7 g/dL
- TBIL (3 h): 0.062 mg/dL
- TC (3 h): 90.6 mg/dL
- TG (3 h): 56.2 mg/dL
- TP (3 h): 5.7 g/dL
- gamma-GTP (3 h): 1.4 IU/L
- TERMINAL_BW (6 h): 207.3 g
- APTT (6 h): 16.9 s
- Bas (6 h): 0%
- Eos (6 h): 1%
- Fbg (6 h): 337 mg/dL
- Hb (6 h): 14.3 g/dL
- Ht (6 h): 43.5%
- Lym (6 h): 69.8%
- MCH (6 h): 20.9 pg
- MCHC (6 h): 32.9%
- MCV (6 h): 63.5 fL
- Mono (6 h): 2.2%
- Neu (6 h): 27%
- PT (6 h): 14.1 s
- Plat (6 h): 124.3 x10_4/uL
- RBC (6 h): 685.4 x10_4/ul
- Ret (6 h): 7.5%
- WBC (6 h): 81.3 x10_2/uL
- KIDNEY_L (6 h): 1 g
- KIDNEY_R (6 h): 1 g
- KIDNEY_TOTAL (6 h): 1.9 g
- LIVER (6 h): 9 g
- A/G (6 h): 1
- ALP (6 h): 1195.2 IU/L
- ALT (6 h): 35.2 IU/L
- AST (6 h): 72.4 IU/L
- BUN (6 h): 11.4 mg/dL
- CRE (6 h): 0.2 mg/dL
- Ca (6 h): 10.9 mg/dL
- Cl (6 h): 106.8 meq/L
- DBIL (6 h): 0.01 mg/dL
- GLC (6 h): 167.6 mg/dL
- IP (6 h): 9.1 mg/dL
- K (6 h): 5 meq/L
- LDH (6 h): 62.6 IU/L
- Na (6 h): 142.4 meq/L
- PL (6 h): 149.4 mg/dL
- RALB (6 h): 2.8 g/dL
- TBIL (6 h): 0.06 mg/dL
- TC (6 h): 81.2 mg/dL
- TG (6 h): 54 mg/dL
- TP (6 h): 5.6 g/dL
- gamma-GTP (6 h): 1 IU/L
- TERMINAL_BW (9 h): 208.4 g
- APTT (9 h): 18 s
- Bas (9 h): 0%
- Eos (9 h): 1%
- Fbg (9 h): 310.4 mg/dL
- Hb (9 h): 14.1 g/dL
- Ht (9 h): 42.6%
- Lym (9 h): 70.2%
- MCH (9 h): 20.9 pg
- MCHC (9 h): 33.1%
- MCV (9 h): 63 fL
- Mono (9 h): 2%
- Neu (9 h): 26%
- PT (9 h): 13.9 s
- Plat (9 h): 116.9 x10_4/uL
- RBC (9 h): 677 x10_4/ul
- Ret (9 h): 7.4%
- WBC (9 h): 88.1 x10_2/uL
- KIDNEY_L (9 h): 1 g
- KIDNEY_R (9 h): 1 g
- KIDNEY_TOTAL (9 h): 2 g
- LIVER (9 h): 8.5 g
- A/G (9 h): 0.9
- ALP (9 h): 1205.8 IU/L
- ALT (9 h): 37 IU/L
- AST (9 h): 72 IU/L
- BUN (9 h): 11.4 mg/dL
- CRE (9 h): 0.2 mg/dL
- Ca (9 h): 10.8 mg/dL
- Cl (9 h): 105.8 meq/L
- DBIL (9 h): 0.008 mg/dL
- GLC (9 h): 161.8 mg/dL
- IP (9 h): 10.6 mg/dL
- K (9 h): 4.6 meq/L
- LDH (9 h): 48.2 IU/L
- Na (9 h): 142.6 meq/L
- PL (9 h): 133.6 mg/dL
- RALB (9 h): 2.7 g/dL
- TBIL (9 h): 0.056 mg/dL
- TC (9 h): 74.2 mg/dL
- TG (9 h): 37.4 mg/dL
- TP (9 h): 5.6 g/dL
- gamma-GTP (9 h): 1.2 IU/L
- TERMINAL_BW (24 h): 227.4 g
- APTT (24 h): 16.3 s
- Bas (24 h): 0%
- Eos (24 h): 1%
- Fbg (24 h): 314.2 mg/dL
- Hb (24 h): 14.1 g/dL
- Ht (24 h): 42%
- Lym (24 h): 79.8%
- MCH (24 h): 22 pg
- MCHC (24 h): 33.5%
- MCV (24 h): 65.5 fL
- Mono (24 h): 2.4%
- Neu (24 h): 16.6%
- PT (24 h): 13.9 s
- Plat (24 h): 130 x10_4/uL
- RBC (24 h): 642 x10_4/ul
- Ret (24 h): 7.4%
- WBC (24 h): 86.7 x10_2/uL
- KIDNEY_L (24 h): 1 g
- KIDNEY_R (24 h): 1 g
- KIDNEY_TOTAL (24 h): 2 g
- LIVER (24 h): 10.9 g
- A/G (24 h): 0.9
- ALP (24 h): 1815 IU/L
- ALT (24 h): 47 IU/L
- AST (24 h): 67.4 IU/L
- BUN (24 h): 16.2 mg/dL
- CRE (24 h): 0.2 mg/dL
- Ca (24 h): 11.3 mg/dL
- Cl (24 h): 105.8 meq/L
- DBIL (24 h): 0.01 mg/dL
- GLC (24 h): 179.8 mg/dL
- IP (24 h): 8.2 mg/dL
- K (24 h): 4 meq/L
- LDH (24 h): 60.6 IU/L
- Na (24 h): 144.2 meq/L
- PL (24 h): 155.4 mg/dL
- RALB (24 h): 2.7 g/dL
- TBIL (24 h): 0.04 mg/dL
- TC (24 h): 81 mg/dL
- TG (24 h): 92 mg/dL
- TP (24 h): 5.5 g/dL
- gamma-GTP (24 h): 1 IU/L

Reference: ChEMBL document CHEMBL3885861, “Open TG-GATES”
